Test results reported in the NIST ThermoML archive (doi:10.1016/j.jct.2008.01.023).

How the values were obtained:
[1] = xn = mol fraction of the nth substance listed; conditions: 298.15 K, 101 kPa, Liquid
[2] = refractive index (Na D-line) (dimensionless); xn = mol fraction of the nth substance listed; conditions: 298.15 K, 101 kPa, Liquid, Standard Abbe refractometry
[3] = 298.15 K; 101.33 kPa; Liquid
[4] = refractive index (Na D-line) (dimensionless); conditions: 298.15 K; 101.33 kPa; Liquid; Standard Abbe refractometry

CCOCCOCCO [3,6-dioxa-1-octanol] + CCCCn1cc[n+](C)c1.COS(=O)(=O)[O-]
Conditions	mass density, [1] [kg/m3]	refractive index, [2]
x2 = 0.0517	1003.36	1.4307
x2 = 0.0891	1016.08	1.4339
x2 = 0.1483	1035.02	1.4388
x2 = 0.2233	1057.1	1.4443
x2 = 0.2901	1074.98	1.4488
x2 = 0.3194	1082.5	1.4507
x2 = 0.3902	1099.82	1.4548
x2 = 0.4732	1118.6	1.4593
x2 = 0.5364	1131.83	1.4626
x2 = 0.6235	1148.55	1.4663
x2 = 0.696	1161.73	1.4697
x2 = 0.8065	1179.9	1.4735
x2 = 0.8947	1193.18	1.4763

ClCCCCl [1,3-dichloropropane] + CCCCn1cc[n+](C)c1.COS(=O)(=O)[O-]
Conditions	mass density, [1] [kg/m3]	refractive index, [2]
x2 = 0.0429	1183.63	1.4499
x2 = 0.0674	1185.62	1.4518
x2 = 0.104	1188.24	1.4543
x2 = 0.1376	1190.37	1.4564
x2 = 0.1894	1193.17	1.4596
x2 = 0.2496	1195.76	1.4624
x2 = 0.3166	1198.02	1.4654
x2 = 0.3917	1200.02	1.4677
x2 = 0.4881	1201.98	1.4706
x2 = 0.5686	1203.19	1.4725
x2 = 0.6797	1204.61	1.4747
x2 = 0.7887	1205.73	1.4765
x2 = 0.8987	1206.82	1.4784

CCCCn1cc[n+](C)c1.COS(=O)(=O)[O-] [1-butyl-3-methylimidazolium methyl sulfate]
Conditions	mass density [kg/m3]	refractive index
[3]	1207.75	–
[4]	–	1.4794

CCCCn1cc[n+](C)c1.F[B-](F)(F)F [1-butyl-3-methylimidazolium tetrafluoroborate] + OCCO
Conditions	mass density, [1] [kg/m3]	refractive index, [2]
x1 = 0.0517	1123.11	1.4287
x1 = 0.138	1138.78	1.4261
x1 = 0.1928	1146.51	1.425
x1 = 0.2567	1154.22	1.424
x1 = 0.3	1158.72	1.4235
x1 = 0.3324	1161.86	1.4231
x1 = 0.402	1167.89	1.4226
x1 = 0.4162	1168.98	1.4225
x1 = 0.4997	1175.1	1.4219
x1 = 0.5803	1180.22	1.4216
x1 = 0.632	1183.29	1.4215
x1 = 0.696	1186.82	1.4215
x1 = 0.8045	1192.48	1.4215
x1 = 0.9083	1197.33	1.4217

C[N+](=O)[O-] [nitromethane]
Conditions	mass density [kg/m3]	refractive index
[3]	1131.17	–
[4]	–	1.3796

CCCCn1cc[n+](C)c1.F[B-](F)(F)F [1-butyl-3-methylimidazolium tetrafluoroborate]
Conditions	mass density [kg/m3]	refractive index
[3]	1201.41	–
[4]	–	1.4219

CCOCCOCCO [3,6-dioxa-1-octanol]
Conditions	mass density [kg/m3]	refractive index
[3]	983.68	–
[4]	–	1.4253

CCCCn1cc[n+](C)c1.COS(=O)(=O)[O-] [1-butyl-3-methylimidazolium methyl sulfate] + OCCO
Conditions	mass density, [1] [kg/m3]	refractive index, [2]
x1 = 0.0341	1195.09	1.4334
x1 = 0.0854	1115.82	1.4373
x1 = 0.1079	1172.89	1.439
x1 = 0.1946	1123.61	1.4449
x1 = 0.2446	1170.78	1.4479
x1 = 0.2999	1126.01	1.4511
x1 = 0.353	1164.56	1.454
x1 = 0.4399	1138.05	1.4582
x1 = 0.5061	1150.15	1.4616
x1 = 0.5299	1188.48	1.4625
x1 = 0.636	1143.98	1.4672
x1 = 0.717	1155.76	1.4703
x1 = 0.8055	1182.08	1.4735
x1 = 0.907	1201.87	1.4768

OCCO [1,2-ethanediol]
Conditions	refractive index
[4]	1.4304

CCCCn1cc[n+](C)c1.COS(=O)(=O)[O-] [1-butyl-3-methylimidazolium methyl sulfate] + CCO
Conditions	mass density, [1] [kg/m3]	refractive index, [2]
x1 = 0.0459	850.62	1.3791
x1 = 0.0987	909.24	1.3956
x1 = 0.142	948.07	1.4067
x1 = 0.1905	984.34	1.417
x1 = 0.2357	1012.98	1.4253
x1 = 0.2733	1033.54	1.4314
x1 = 0.3516	1069.63	1.4414
x1 = 0.4381	1101.3	1.4503
x1 = 0.5335	1129.08	1.4581
x1 = 0.5712	1138.45	1.4609
x1 = 0.6742	1160.39	1.4667
x1 = 0.7665	1176.77	1.4715
x1 = 0.8482	1188.91	1.4745
x1 = 0.9248	1199.03	1.4772

ClCCCCl [1,3-dichloropropane] + CCCCn1cc[n+](C)c1.F[B-](F)(F)F
Conditions	mass density, [1] [kg/m3]	refractive index, [2]
x2 = 0.0536	1184.13	1.4448
x2 = 0.1135	1187.8	1.443
x2 = 0.1516	1189.78	1.4418
x2 = 0.2101	1192.32	1.4401
x2 = 0.2817	1194.71	1.4381
x2 = 0.3528	1196.53	1.4359
x2 = 0.4042	1197.51	1.4345
x2 = 0.4626	1198.41	1.433
x2 = 0.5254	1199.14	1.4314
x2 = 0.5466	1199.38	1.4309
x2 = 0.5955	1199.76	1.4296
x2 = 0.6786	1200.34	1.4276
x2 = 0.7863	1200.89	1.4255
x2 = 0.9028	1201.2	1.4234

C[N+](=O)[O-] [nitromethane] + CCCCn1cc[n+](C)c1.F[B-](F)(F)F
Conditions	mass density, [1] [kg/m3]	refractive index, [2]
x2 = 0.0512	1148.18	1.3889
x2 = 0.0991	1158.64	1.3952
x2 = 0.1392	1165.19	1.399
x2 = 0.2026	1173.12	1.4038
x2 = 0.2986	1181.43	1.4089
x2 = 0.3565	1185.14	1.4112
x2 = 0.3972	1187.27	1.4125
x2 = 0.4553	1189.89	1.4142
x2 = 0.5231	1192.3	1.4158
x2 = 0.5949	1194.48	1.4172
x2 = 0.6863	1196.69	1.4188
x2 = 0.8073	1198.86	1.4202
x2 = 0.8634	1199.69	1.4207

CCCCn1cc[n+](C)c1.F[B-](F)(F)F [1-butyl-3-methylimidazolium tetrafluoroborate] + CCO
Conditions	mass density, [1] [kg/m3]	refractive index, [2]
x1 = 0.0517	850.45	1.3703
x1 = 0.0918	891.63	1.3767
x1 = 0.1995	976.13	1.3898
x1 = 0.2495	1007.41	1.3943
x1 = 0.2518	1042.9	1.3946
x1 = 0.3228	1081.97	1.3998
x1 = 0.4219	1117.11	1.4058
x1 = 0.5356	1138.94	1.4105
x1 = 0.6244	1156.56	1.4137
x1 = 0.709	1177.74	1.4161
x1 = 0.8295	1192.74	1.4188

ClCCCCl [1,3-dichloropropane]
Conditions	mass density [kg/m3]	refractive index
[3]	1179.1	–
[4]	–	1.446

CCO [ethanol]
Conditions	mass density [kg/m3]	refractive index
[3]	785.18	–
[4]	–	1.3593

CCOCCOCCO [3,6-dioxa-1-octanol] + CCCCn1cc[n+](C)c1.F[B-](F)(F)F
Conditions	mass density, [1] [kg/m3]	refractive index, [2]
x2 = 0.0544	1003.36	1.4268
x2 = 0.1016	1018.2	1.4274
x2 = 0.1492	1032.87	1.4277
x2 = 0.1941	1045.1	1.4278
x2 = 0.2686	1065.22	1.4278
x2 = 0.3215	1078.37	1.4277
x2 = 0.3932	1094.93	1.4273
x2 = 0.5108	1119.82	1.4265
x2 = 0.6016	1137.49	1.4257
x2 = 0.6657	1149.16	1.425
x2 = 0.6998	1155.07	1.4247
x2 = 0.8304	1176.5	1.4235
x2 = 0.9551	1195.04	1.4223

CCCCn1cc[n+](C)c1.COS(=O)(=O)[O-] [1-butyl-3-methylimidazolium methyl sulfate] + C[N+](=O)[O-]
Conditions	mass density, [1] [kg/m3]	refractive index, [2]
x1 = 0.0398	1146.67	1.3953
x1 = 0.1021	1161.66	1.4128
x1 = 0.1433	1168.87	1.4218
x1 = 0.1988	1176.21	1.4316
x1 = 0.2444	1180.95	1.4382
x1 = 0.2998	1185.58	1.4449
x1 = 0.3979	1191.69	1.4541
x1 = 0.4786	1195.47	1.4596
x1 = 0.5652	1198.52	1.4648
x1 = 0.7127	1202.66	1.4714
x1 = 0.8212	1204.74	1.4748
x1 = 0.8546	1205.4	1.4758
